Results: patent publication US9724315B2, “Compounded transdermal pain management” (CMPD Licensing, LLC, priority 2011, dated 2017)
Structures can show the parent of a compound that is named as a salt. Where two headings read alike, the source gives them in different places.

Conditions: for percent permeation of applied dose beyond the stratum corneum: single dose, four drugs in combination; for time of (initial) peak flux after dose application: base composition Lipoderm ActiveMax, four drugs applied in combination; for mean flux of percutaneous absorption: ex vivo human trunk skin
Procedure: An evaluation of the percutaneous absorption of ketamine HCL, gabapentin, clonidine HCL, and baclofen in both Lipoderm® and Lipoderm® ActiveMax™ into human trunk skin, in vitro, using the Franz skin finite dose model was performed. The study was designed to evaluate the percutaneous absorption harmacokinetics of ketamine HCL, gabapentin, clonidine HCL, and baclofen. Absorption was measured in human cadaver skin, in vitro, using the finite dose technique and Franz diffusion cells.
Ketamine HCL 5% w/w, gabapentin 10% w/w, clonidine HCL 0.2% w/w and baclofen 2% w/w, in Lipoderm® and Lipoderm® ActiveMax, were tested on triplicate sections from three different cadaver skin donors for the percutaneous absorption of ketamine HCL, gabapentin, clonidine HCL, and baclofen over a 48-hour dose period. At pre-selected times after dose application, the dermal receptor solution was removed in its entirety, replaced with fresh receptor solution, and an aliquot saved for subsequent analysis. In addition, the epidermis and dermis were recovered and evaluated for drug content. The samples were analyzed for ketamine HCL, gabapentin, clonidine HCL, and baclofen content by High Performance Liquid Chromatography (HPLC)/MS.
The model uses ex vivo animal, human cadaver, or surgical skin mounted in specially designed diffusion cells that allow the skin to be maintained at a temperature and humidity that match typical in vivo conditions. (See Franz, T. J., Percutaneous Absorption: On the Relevance of In Vitro Data. J. Invest. Dermatol, 1975, 64:190-195.)
A finite dose (e.g., 4-7 mg/cm^2) of formulation may be applied to the outer surface of the skin and drug absorption may be measured by monitoring its rate of appearance in the receptor solution bathing the inner surface of the skin. Data defining total absorption, rate of absorption, as well as skin content may be accurately determined in this model. The method has historic precedent for accurately predicting in vivo percutaneous absorption kinetics. (See Franz T. J., The Cadaver Skin Absorption Mode and the Drug Development Process. Pharmacopeial Forum 34(5): 1349-1356, 2008; see also Franz T. J., Lehman P. A., and Raney S., Use of Excised Human Skin to Assess the Bioequivalence of Topical Products. Skin Pharmacol Physiol 22:276-286, 2009.)
During the evaluation, percutaneous adsorption was measured using the in vitro cadaver skin finite dose technique. Human cadaver trunk skin without obvious signs of skin disease, obtained within approximately 24 to 48 hours of death, was used in this study. The skin was dermatomed, cryopreserved, sealed in a water-impermeable bag and stored at approximately −70° C. until the day of the experiment. Prior to use, the skin was thawed in approximately 37° C. water, then rinsed in water to remove any adherent blood or other material from the surface.
Skin from three donors was cut into multiple smaller sections large enough to fit on an approximately nominal 0.8 cm^2 Franz diffusion cells. The dermal chamber was filled to capacity with a reservoir solution of phosphate-buffered isotonic saline (PBS), pH 7.4±0.1, with 0.1% Oleth-20 and 0.008% Gentamicin, and the epidermal cell (chimney) left open to ambient laboratory conditions. All cells were mounted in a diffusion apparatus in which the dermal bathing solution was stirred magnetically at approximately 600 RPM and the skin surface temperature maintained at 32.0°±1.0° C.
To assure the integrity of each skin section, its permeability to tritiated water was determined before application of the test products. (See Franz T. J. and Lehman P. A., The Use of Water Permeability as a Means of Validation for Skin Integrity in In Vitro Percutaneous Absorption Studies. Abst. J. Invest. Dermatol 1990, 94:525.) Following a brief (0.5-1 hour) equilibrium period, ^3H2O (NEN, Boston, Mass., sp. Act. ˜0.5 μCi/mL) was layered across the top of the skin so that the entire exposed surface was covered (approximately 250 to 500 μL).

[1] = Lipoderm ActiveMax base, four drugs simultaneously, intact
[2] = Lipoderm ActiveMax base, about 1 hour after single application
[3] = Lipoderm ActiveMax base, about 3 hours after single application
[4] = Lipoderm ActiveMax base, about 6 hours after single application
[5] = Lipoderm ActiveMax base, about 10 hours after single application
[6] = Lipoderm ActiveMax base, about 18 hours after single application
[7] = Lipoderm ActiveMax base, about 28 hours after single application
[8] = Lipoderm ActiveMax base, about 40 hours after single application

For `NCC(CC(=O)O)c1ccc(Cl)cc1` (stereo not drawn) [baclofen], the “penetration of skin from the base composition” value (shortened to “penetration of skin”) [1] was “penetrate into and through ex vivo human trunk skin”, the “percent permeation of applied dose beyond the stratum corneum” value (from here on “percent permeation”) (Lipoderm ActiveMax base) was “approximately 5.5%” and the “percent permeation” value (Lipoderm base) was “approximately 3.95%”. For the same compound, the “time of (initial) peak flux after dose application” value was “approximately one”.
In the case of `Clc1cccc(Cl)c1N=C1NCCN1` [clonidine, clonidine HCL], the “mean flux using Lipoderm ActiveMax compared with Lipoderm” value is reported as “exceed”, the “minimum mean flux using Lipoderm ActiveMax compared with Lipoderm” value is reported as “exceeded” and the “penetration of skin” value is reported as “penetrate into and through ex vivo human trunk skin”. The “mean flux of percutaneous absorption” value [2] was “approximately 0.005 μg/cm^2/hr”, the “mean flux of percutaneous absorption” value [3] was “approximately 0.007 μg/cm^2/hr” and the “mean flux of percutaneous absorption” value [4] was “approximately 0.006 μg/cm^2/hr”. The “mean flux of percutaneous absorption” value [5] was “approximately 0.008 μg/cm^2/hr”, the “mean flux of percutaneous absorption” value [6] was “approximately 0.008 μg/cm^2/hr” and the “mean flux of percutaneous absorption” value [7] was “approximately 0.011 μg/cm^2/hr”. The “mean flux of percutaneous absorption” value [8] was “approximately 0.011 μg/cm^2/hr”.
With `NCC1(CC(=O)O)CCCCC1` [gabapentin] the “penetration of skin” value [1] was “penetrate into and through ex vivo human trunk skin”, the “percent permeation” value (Lipoderm ActiveMax base) was “approximately 2.6%” and the “time of (initial) peak flux after dose application” value was “approximately one”.
With `CNC1(c2ccccc2Cl)CCCCC1=O` (stereo not drawn) [ketamine, ketamine HCL] the “mean flux of percutaneous absorption” value [2] was “approximately 0.75 μg/cm^2/hr”, the “mean flux of percutaneous absorption” value [3] was “approximately 3.0 μg/cm^2/hr” and the “mean flux of percutaneous absorption” value [4] was “approximately 4.1 μg/cm^2/hr”. For the same compound, the “mean flux of percutaneous absorption” value [5] was “approximately 4.3 μg/cm^2/hr”, the “mean flux of percutaneous absorption” value [6] was “approximately 2.4 μg/cm^2/hr” and the “mean flux of percutaneous absorption” value [7] was “approximately 2.5 μg/cm^2/hr”. The “mean flux of percutaneous absorption” value [8] was “approximately 1.9 μg/cm^2/hr”, the “penetration of skin” value [1] was “penetrate into and through ex vivo human trunk skin” and the maximum mean flux (Lipoderm ActiveMax base, single application, 48 hours) was “approximately 4.3 μg/cm^2/hr”. For the same compound, the “percent permeation” value (Lipoderm ActiveMax base) was “approximately 53.4%”, the “percent permeation” value (Lipoderm base) was “approximately 44.8%” and the “mean flux using Lipoderm ActiveMax compared with Lipoderm” value (ketamine: most of the 48 hours, from about 2 hours, clonidine: about two to about 40 hours after application) was “exceed”. For the same compound, the “maximum mean flux using Lipoderm ActiveMax compared with Lipoderm” value (single application, 48 hours) was “exceeded”.
